# Like-named read-outs stand apart in the source and are kept apart here.
# Experiments:
# [1] = system: clinically-derived HIV-1 protease variant VSL23; assay: Cell-based assay (Swanstrom laboratory); details: Human immunodeficiency virus 1
# [2] = system: clinically-derived HIV-1 protease variant VEG23; assay: Cell-based assay (Swanstrom laboratory); details: Human immunodeficiency virus 1
# [3] = system: NL4-3 wild-type HIV-1 protease; assay: Cell-based assay (Swanstrom laboratory); details: Human immunodeficiency virus 1, NL43
# Excerpt: (§1) A diverse panel of 15 HIV-1 protease variants was chosen with a broad range of sequence substitutions containing single site mutants and more heavily mutated multi-drug resistant proteases (MDR-PRs). Both the SF-2 and NL4-3 wild-type (WT) proteases were used as controls for the variants in the panel. These two WT proteins shared 95% identity, varying at positions 7, 14, 41, 63 and 64 (FIG. 2). […] Table 1 is a listing of EC50 values for clinically-derived HIV-1 protease variants determined by cell-based assays at the Swanstrom laboratory at UNC-Chapel Hill, and fold changes relative to wild type NL4-3. The EC50 value for variant ATA21 could not be determined.
# [4] = system: clinically-derived HIV-1 protease variant KY26; assay: Cell-based assay (Swanstrom laboratory); details: Human immunodeficiency virus 1
# [5] = system: SF-2 wild-type HIV-1 protease; assay: Cell-based replicon assay; details: Human immunodeficiency virus 1, cell-based replicon assays
# Excerpt: as §1
# [6] = system: clinically-derived HIV-1 protease variant SLK19; assay: Cell-based assay (Swanstrom laboratory); details: Human immunodeficiency virus 1
structure (smiles),measurement,setting,value
"CC(C)CN(C[C@@H](O)[C@H](Cc1ccccc1)NC(=O)O[C@H]1CO[C@H]2OCC[C@H]21)S(=O)(=O)c1ccc(N)cc1 [DRV, Darunavir]",EC50,[1],320 nM
same,EC50,[2],7800 nM
same,EC50,"[3]; NL4-3, cell-based replicon assays, read-out: EC50",4 nM
same,EC50,"[3]; NL4-3 wild type, read-out: EC50 In",3.98 nM
same,EC50,[4],1160 nM
same,EC50,[5],4 nM
same,EC50,[6],32.5 nM

# — patent publication US11521704B2, “Method for probing at least one binding site of a protein” (priority 2017, dated 2022)
